The source of these data is patent US11026945B2, “Protein kinase RNA-like endoplasmic reticulum kinase (PERK) inhibitors for prevention and/or treatment of lung injury and/or inflammation” (THE TRUSTEES OF THE UNIVERSITY OF PENNSYLVANIA, priority 2016, dated 2021).

This series concerns rat model of VILI. The method, then:
To establish the feasibility of translating the in vitro findings to in vivo, a rat model of VILI was used. Animals were pretreated via oral gavage with either 30 mg/kg PI or its vehicle for 4 hours prior to the start of the experiment. Rats were ventilated with 20 ml/kg tidal volume via tracheostomy for 4 hours without positive end expiratory pressure (PEEP) or a recruitment maneuver to induce injury. The lung tissue of ventilated animals was compared to spontaneously breathing controls. […] To confirm these findings, immunofluorescence analysis of thin cut sections was performed using a Zeiss LSM 880 laser scanning confocal microscope (FIG. 19).
Groups of animals (Sprague-Drawly rats, 250 to 300 g weight purchased from Charles River Laboratories, N=150)) were pretreated with one time dose of 3, 10 and 30 mg/kg of PI (GSK2606414) or its vehicle (0.1% TWEEN 80 in 0.5% […]) via oral gavage 4 hours before the start of the experiment. Subsequently, animals were randomized in the following conditions: • 1. Non-ventilated controls pretreated with drug vehicle (C/VC). These animals were sacrificed 8 hours post gavage. • 2. Low tidal volume ventilation group pretreated with vehicle (LTV/VC). These animals were anesthetized 4 hours post gavage and ventilated via tracheostomy for 4 hours with 6 ml/kg tidal volume, 3-5 cmH2O PEEP and lungs were recruited with 30 cmH2O pressure of air hourly. Animals were sacrificed at the end of 4 hours ventilation. This group will served as a second control to assess lung injury parameters in an optimized ICU care situation. • 3. High tidal volume ventilation group pretreated with vehicle (HTV/VC). Animals were ventilated with 20 ml/kg tidal volume without PEEP or recruitment maneuver to induce lung injury and sacrificed at the end of mechanical ventilation period. • 4. Controls with PI treatment (C/PI). Animals were sacrificed after 8 hours of PI treatment. • 5. High tidal volume mechanical ventilation with PI treatment (HTV/PI). Animals were sacrificed at the end of mechanical ventilation period. At the end of the experiment, lung tissue, BAL and serum was collected from all animals. To determine the optimal dose of PI in VILI, the following parameters were measured: BAL total protein measurement (BioRad Protein Assay, BioRad, Hercules, Calif.); lung tissue histology with hematoxylin-eosin (H&E) staining for lung injury scoring; BAL total and differential cell count; Serum and BAL cytokine analysis for IL-18 (R&D Systems, Minneapolis, Minn., USA); lung tissue was collected for future RNA and protein expression studies; blood pressure and heart rate recording (Coda Monitor, Kent Scientific, Torrington, Conn.); and/or animal mortality prior to the end of the experiment.
Rats (N=32) received PERK inhibitor GSK 2606414 (PI) or vehicle control (0.1% Tween 80+0.5% hydroxypropyl-methylcellulose (VC)) via oral gavage 4 hours before the start of mechanical ventilation in 2.5 ml volume bolus. Subsequently, animals were randomized to receive mechanical ventilation, or they were let to breathe spontaneously (N=8/group). For the mechanical ventilation protocol, rats were kept under general anesthesia for the entire procedure. Their breathing, cardiac function and neurological responses were continuously monitored to minimize pain and distress. Induction and maintenance anesthesia was performed with inhaled 2-4% isoflurane. If additional anesthesia was necessary to keep the animal in surgical plane at the time of induction, it was given an intraperitoneal injection of a mixture of ketamine (75-100 mg/kg) and xylazine (5-10 mg/kg). To minimize injectable anesthesia and improve analgesia use, the subcutaneous tissue of the tracheostomy site was injected with 1% lidocaine.

The mark [1] stands for this setting: CPI: spontaneously breathing rats, 30 mg/kg four hours prior to sacrifice.
Where [2] appears, read: VPI: rats ventilated 4 hours with 20 ml/kg tidal volume, 30 mg/kg four hours prior to ventilation.
[3] abbreviates: ventilated rats, 30 mg/kg PI oral.
Setting [4] is: ventilated rats, 30 mg/kg oral gavage.

Where two headings read alike, the source gives them in different places.

Turning to `Cn1cc(-c2ccc3c(c2)CCN3C(=O)Cc2cccc(C(F)(F)F)c2)c2c(N)ncnc21` [PI, 1-[5-(4-Amino-7-methyl-7H-pyrrolo[2,3-d]pyrimidin-5-yl)indolin-1-yl]-2-(3-trifluoromethylphenyl)ethanone], under setting [1], the Macrophage cell count is reported as 0.77 ± 0.17 ×10^3 cells/ml BAL, the Neutrophil cell count is on record as 0.003 ± 0.003 ×10^3 cells/ml BAL and the Total cell count is recorded as 1.44 ± 0.23 ×10^3 cells/ml BAL. For the setting “VPI vs V, 30 mg/kg oral gavage”, the “FITC-labeled albumin permeability index” value was “decreased”. In addition, under setting [2], the Macrophage cell count was 1.28 ± 0.26 ×10^3 cells/ml BAL, the Neutrophil cell count is 0.03 ± 0.009 ×10^3 cells/ml BAL and the Total cell count is listed as 1.75 ± 0.14 ×10^3 cells/ml BAL. Also, the “dose sufficient to inhibit VILI” value (dose titration 3, 10 and 30 mg/kg, oral gavage 4 hours before ventilation) is 10 mg/kg. The “alveolocapillary permeability in VILI (FITC-labeled albumin extravasation), effect of increasing dose” value (dose titration 3-30 mg/kg, experiment partially completed) is listed as “gradual effect on reducing alveolocapillary permeability”. Besides, where the note is “spontaneously breathing animals, 30 mg/kg”, the “immunosuppression (BAL cell count)” value is given as “did not result in immunosuppression”. Further, under setting [3], the “Ventilation-induced BAL total protein content” value is listed as “significantly reduced” and the lung injury score result is on record as “significantly reduced”. Also, under setting [4], the “IL-18 BAL levels” value is “reduced” and the “serum IL-18 levels” value is on record as “did not affect”.
